Laboratory results reported in ChEMBL document CHEMBL1141981, “Studies on synthesis and evaluation of quantitative structure-activity relationship of 5-[(3'-chloro-4',4'-disubstituted-2-oxoazetidinyl)(N-nitro)amino]-6-hydroxy-3-alkyl/aryl[1,3]azaphospholo[1,5-a]pyridin-1-yl-phosphorus dichlorides” (2005).
Where “and” joins values, the source holds several entries; their conditions need not be identical. Equal values may be shown once.

Key:
Assay type in all cases: functional
Bacillus subtilis = test: Minimum inhibitory concentration against Bacillus subtilis
Staphylococcus aureus = test: Minimum inhibitory concentration against Staphylococcus aureus
[1] = Minimum inhibitory concentration against Candida albicans

SMILES	-Log MIC (Bacillus subtilis)	-Log MIC (Staphylococcus aureus)	-Log MIC [1]
CC1(C)S[C@@H]2[C@H](NC(=O)[C@H](N)c3ccccc3)C(=O)N2[C@H]1C(=O)O [AMPICILLIN]	4.606 ug ml-1	3.097 ug ml-1	–
Clc1ccccc1C(c1ccccc1)(c1ccccc1)n1ccnc1	–	–	3.14 µg ml-1 and 3.24 µg ml-1
